# Experimental data: patent US20260072030A1, “RAS BIOSENSORS” (The Regents of the University of California, priority 2022, published 2026)
# Assays:
# Format in all cases: cell-based
# EGFR = assay: Reversal of EGF-induced RasAR response by EGFR inhibitor; details: RasAR + mCherry-KRasWT, 100 ng/ml EGF followed by 200 nM AG1478
# Source text: To determine whether RasAR can detect dynamic Ras activity, we co-expressed the sensor with mCherry-KRasWT in COS-7 cells and stimulated the cells with epidermal growth factor (EGF). […] Consistent with previous studies,26 we observed higher C/Y emission ratios in membrane ruffles following EGF stimulation, indicating enhanced KRas activity in these regions. In addition, consistent with the Golgi localization of Ras,26 we observed an increased activity in the Golgi compartment (FIGS. 2A and 8). […] The EGF-stimulated increases in the emission ratio occurred in both the membrane ruffles as well as the Golgi compartment (FIGS. 2B-2C and 8), with slower kinetics observed at the Golgi (FIG. 7A).
# Cells were washed three times with Hanks's balanced salt solution (HBSS, Gibco) prior to imaging. Cells were imaged in HBSS in the dark at 37° C. […] Cells were imaged on a Zeiss Axio Observer Z1 microscope equipped with a 20×/0.8 NA objective and a Hamamatsu Flash 4.0 sCMOS camera, controlled using MicroManager 2.0 software. […] All fluorescence images were background-correcting by rolling circle background subtraction in ImageJ using a rolling-ball circle radius of 350 pixels. Cyan/yellow or yellow/cyan emission ratios were then calculated by dividing the CFP channel values by the CYFRET channel values, or the CYFRET channel values by CFP channel values, respectively. […]
# KRasWT = target: T1, KRasWT (Homo sapiens, UniProt P01116); assay: Live-cell Ras inhibitor assay, COS-7 cells co-expressing RasAR and KRasWT control; details: KRasWT controls, 10 μM, 24 hr, vs DMSO
# T1 construct: host or cells: COS-7
# mCherry-KRasG12C = assay: Ras expression assessed by RFP intensity in COS-7 cells
# ERK = ERK activity reporter (EKAR4) Y/C emission ratio in COS-7 cells; details: 10 μM, 3 hr
# KRasG12C = target: T2, KRasG12C (Homo sapiens, UniProt P01116, G12C)
# T2 construct: expressed in transfected cells; host or cells: COS-7
# Src = Src inhibitor pretreatment, EGF-induced HRas activity measured with RasAR sensors in COS-7 cells; details: for effect of pretreatment on EGF-induced response, cytosolic RasAR: RasAR + HRasWT, 1 μM inhibitor
# Source text: To clarify the regulatory role of Src on HRas at the Golgi, we monitored HRas activity at the Golgi with GA-RasAR in the presence of Src inhibitor PP2.
# Phosphorylation of residue Y32 has been implicated in the negative regulation of HRas by Src.31 To verify this mechanism of Src inhibition we co-expressed RasAR with HRasY32F and stimulated with EGF. […] KRas was recently shown to be negatively regulated by Src via dual phosphorylation of Y32 and Y64,28 which negatively impacts multiple steps of the GTPase cycle and impairs binding to effectors. However, the role of Y64 in HRas has not been investigated. To test the hypothesis that phosphorylation of both Y32 and Y64 is involved in Src regulation of HRas, we expressed RasAR and an mCherry-labeled HRas mutant containing Y32F/Y64F mutations and monitored EGF-induced responses in the presence and absence of PP2.
# Cells were washed three times with Hanks's balanced salt solution (HBSS, Gibco) prior to imaging. Cells were imaged in HBSS in the dark at 37° C. […] Cells were imaged on a Zeiss Axio Observer Z1 microscope equipped with a 20×/0.8 NA objective and a Hamamatsu Flash 4.0 sCMOS camera, controlled using MicroManager 2.0 software. For time series, images from multiple fields of view were acquired at each time point at 30 sec intervals. RFP was imaged using a 568DF55 excitation filter, a 600DRLP dichroic mirror, and a 653DF95 emission filter. CFP was imaged using a 420DF20 excitation filter, a 455DRLP dichroic mirror, and a 470DF40 emission filter. CYFRET was imaged using a 420DF20 excitation filter, a 455DRLP dichroic mirror, and a 535DF25 emission filter. YFP was imaged using a 495DF10 excitation filter, a 515DRLP dichroic mirror, and a 535DF25 emission filter. Exposure times for each channel were 250-500 ms. All filter sets were controlled by a Lambda 10-2 filter-changer (Sutter Instruments). All fluorescence images were background-correcting by rolling circle background subtraction in ImageJ using a rolling-ball circle radius of 350 pixels. Cyan/yellow or yellow/cyan emission ratios were then calculated by dividing the CFP channel values by the CYFRET channel values, or the CYFRET channel values by CFP channel values, respectively. For the time-series analysis, all values were normalized to the time point prior to drug addition by dividing each value by basal ratio value prior to drug addition. Co-expression experiments were processed using Cell Profiler on background subtracted images and segmented using CYFRET channel images. Individual t½ measurements were acquired using custom script within Matlab.
smiles,measurement,setting,value
COc1cc2ncnc(Nc3cccc(Cl)c3)c2cc1OC [AG1478],effect on C/Y emission ratio after EGF stimulation,EGFR,decrease in the C/Y emission ratio
C=CC(=O)N1CCN(c2ncnc3c(F)c(-c4c(O)cccc4F)c(Cl)cc23)CC1 [ARS1620],effect on RasAR C/Y emission ratio,KRasWT,no effect of inhibitor treatment
same,"Cohen's f, RFP intensities across titration treatment groups","mCherry-KRasG12C; ARS1620 titration experiment, 24 hr",0.06
same,"Cohen's d, effect of treatment on EKAR4 Y/C emission ratio",ERK; mCherry-KRasG12C expressing COS-7 cells,0.84
same,"Cohen's d, effect of treatment on EKAR4 Y/C emission ratio",ERK; mCherry-KRasWT expressing COS-7 cells,0.02
same,time over which the C/Y emission ratio continuously declines after treatment,KRasG12C; 10 μM inhibitor,5 h
same,concentration dependence of C/Y emission ratio,"KRasG12C; 10 μM, 3 μM, 1 μM, 0.3 μM, 0.1 μM, 24 hr",dose-dependent inhibition of KRasG12C
same,effect on RasAR C/Y emission ratio,"KRasG12C; 10 μM, 24 hr, vs DMSO",higher C/Y emission ratio in KRasG12C-expressing cells treated with DMSO compared with ARS1620 treatment
CC(C)(C)n1nc(-c2ccc(Cl)cc2)c2c(N)ncnc21 [PP2],effect of pretreatment on EGF-induced response at the Golgi,"Src; GA-RasAR + mCherry-HRas, vs DMSO, n=300 cells each",enhanced
same,"effect of pretreatment on EGF-induced response, cytosolic RasAR",Src; vs DMSO,larger EGF-induced response
same,"effect of pretreatment on EGF-induced response, HRasY32F","Src; RasAR + mCherry-HRasY32F, PP2 1 μM, vs control cells",enhanced response to EGF
same,"effect of pretreatment on EGF-induced response, HRas Y32F/Y64F","Src; RasAR + mCherry-HRasY32F/Y64F, vs control cells, n=180 cells each",no significant difference
same,effect of pretreatment on EGF-induced Ras activity at the plasma membrane,"Src; pm-RasAR + mCherry-HRasWT, vs DMSO",did not affect EGF-induced Ras activity
COc1cc2ncnc(Nc3ccc(Oc4ccccc4)cc3)c2cc1OC [SrcI1],"effect of pretreatment on EGF-induced response, cytosolic RasAR",Src; vs DMSO,enhanced EGF-induced Ras activity
C[C@@H]1C[C@@H]([C@H](O)CC2CC(=O)NC(=O)C2)C(=O)[C@@H](C)C1 [cycloheximide],effect on KRasG12C expression levels,mCherry-KRasG12C; 24-hr timeframe,reduced KRasG12C expression levels
same,"Cohen's d, RFP intensities with and without cycloheximide","mCherry-KRasG12C; ARS1620 10 μM, cycloheximide 100 μg/ml",0.36
same,"Cohen's f, effect of treatment on mCherry-KRasG12C expression by RFP intensity",mCherry-KRasG12C; cycloheximide treatment 24 hr,1.26
same,effect of inhibiting protein re-synthesis on kinetics of Ras inactivation by ARS1620,KRasG12C; ARS1620 10 μM with cycloheximide 100 μg/ml,did not speed up the kinetics of Ras inactivation
